Laboratory results as given in patent publication US8039505B2, “Compounds for modulating T-cells” (University of Utah Research Foundation, priority 2007, dated 2011).

Assay: Complete blood count (CBC) evaluation in mice
Assay type: in vivo, male Swiss Albino mouse
Conditions: mouse, 48 h after dosing
Protocol: The pharmacokinetics of 1H-indole-3-carbaldehyde quinolin-8-ylhydrazone (Compound C3) was evaluated following intravenous (3 mg/kg) and oral (15 mg/kg) solution administration of 1H-indole-3-carbaldehyde quinolin-8-ylhydrazone in male Swiss Albino mouse. The effect of the Test Item, 1H-indole-3-carbaldehyde quinolin-8-ylhydrazone on complete blood count (CBC) was also evaluated. Pharmacokinetic phase consisted of two groups, Group 1 and Group 2. Animals in Group 1 were given intravenous bolus dose in a vehicle containing 5% N,N-dimethylacetamide, 5% CREMOPHOR™ EL and 90% Dextrose solution (5% w/v) and those in Group 2 were given oral solution dose in a vehicle, the composition of which was same as that of intravenous formulation. In addition, the effect of Test Item on complete blood count was evaluated following intravenous and oral dose administration along with its vehicle controls. A total of four groups were used each with 6 mice.
From the pharmacokinetic group, predose samples were collected from 3 animals in each group. Following dose administration terminal blood samples were collected at each of the following time points (in triplicate): 0.083 (only for intravenous), 0.25, 0.5, 1, 2, 4, 8, 12 and 24 hours. At each time point, approximately 500 μL of whole blood was withdrawn from the retro orbital sinus and collected in labeled tubes containing dipotassium EDTA as anticoagulant (20 μL of 200 mM K2 EDTA solution per mL of blood). Plasma was separated by centrifuging the whole blood at about 2500 g for 10 minutes at 4° C. within 1 h of sample collection. Separated plasma was stored below minus 50° C. until bioanalysis. A sensitive LC-MS/MS method was used for the quantitation of 1H-indole-3-carbaldehyde quinolin-8-ylhydrazone. The lower limit of quantitation was 1.04 ng/mL. For CBC evaluation, approximately 500 μL of blood was collected in labeled tubes containing dipotassium EDTA as anticoagulant (10 […]/mL of blood) after 48 h of dose administration from all animals.
A total of 24 mice were divided in to four groups as follows: […]

C(=NNc1cccc2cccnc12)c1c[nH]c2ccccc12 [Compound C3, 1H-indole-3-carbaldehyde quinolin-8-ylhydrazone]
Other hematological parameters vs vehicle control (intravenous 3 mg/kg and oral 15 mg/kg): no effect
White blood cell count vs vehicle control (intravenous 3 mg/kg): lower
Platelet count vs vehicle control (oral 15 mg/kg): lower
